The values below are quoted from earlier work in patent publication US20200093858A1, “VAGINAL BIOADHESIVE BORIC ACID FORMULATION AND ITS PREPARATION METHOD” (Halo Science LLC, priority 2015, published 2020).

For one data set, the system named is common fungi or bacteria. Particulars: in urine.
Data set [1] has as its system recurrent bacterial vaginosis. As to conditions: for cure rate / cumulative cure rate: boric acid in addition to nitroimidazole.
For data set [2] the following is noted: 600 mg per day, therapeutic course of two weeks.
The next data set has as its system T. glabrata. Particulars: refractory T. glabrata vaginitis.
The next data set concerns C. albicans. Particulars: 2×10^6 per mL of C. albicans, in vitro.

Like-named read-outs stand apart in the source and are kept apart here. A value given as a limit tells only on which side of the number the result lay.

Consider `OB(O)O` [boric acid], for which the “boric acid concentration that could suppress almost all common fungi or bacteria” value in the data set with common fungi or bacteria is 10 to 20 mg/mL. For the same compound, the adverse reactions result in data set [1] (in vivo) is “No adverse reactions were observed”; in data set [2] it was “did not cause adverse reactions”. The cure rate in data set [1] (week 7) is reported as 88%; in data set [1] (week 12), 92%; with vulvovaginal candidiasis (boric acid treatment of vulvovaginal candidiasis) it was over 90%. Further, the cumulative cure rate was 78% in data set [1] (week 16) and 65% in data set [1] (week 28). For the same compound, the Clinical efficacy in the data set with T. glabrata is at most 81%. Also, the mycological eradication rate with T. glabrata is on record as at most 77%. For the same compound, the “boric acid concentration that inhibited proliferation of C. albicans” value in the data set on C. albicans is on record as 4%. For the same compound, in the data set on vulvovaginal candidiasis (treatment for 14 days), the “efficacy compared with conazoles” value is reported as “equivalent to conazoles”.
